# Source: US5149707A, “1-((2-fluorophenyl)(4-fluorophenyl)phenylmethyl)-1H-imidazole useful as antifungal agent” (J. Uriach & Cia, S.A., priority 1988, dated 1992)
# Read-outs that look alike come from different tables or passages of the source.
# Assays:
# Type in all cases: cell-based
# C. guilliermondii = experiment: MIC distribution, serial dilutions in Sabouraud gentamycin broth, microplates; details: # of strains = 5
# Method: The antifungal activity of 1-[(2-fluorophenyl)(4-fluorophenyl)phenylmethyl]-1H-imidazole and bifonazole was determined by serial dilutions in Sabouraud gentamycin broth using microplates. The antifungal agent was diluted in 50% ethanol to obtain concentrations between 40 and 0.015 mcg/ml. Inoculum was 10^7 cfu/ml for yeast and 10^6 cfu/ml for dermatophytes. Incubation was allowed at 37° C. during 2 days for yeasts, and at 29° C. during 7 days for dermatophytes. MIC's were determined as in example 18. The MIC distributions obtained in 9 organisms are shown in the next tables.
# C. albicans ATCC 28516 = experiment: In vitro antifungal activity (MIC), agar dilution; details: Candida albicans, read-out: MIC
# Method: (§1) The antifungal activity of 1-[(2-fluorophenyl)(4-fluorophenyl)phenylmethyl]-1H-imidazole was shown by its ability to inhibit the growth of different species of yeast and filamentous fungi in vitro. The activity was recorded as the MIC value, that is, the minimum amount of product needed to achieve the complete inhibition of the in vitro growth of the test organism. Testing was performed as follows: a solution of the antifungal agent in ethanol was diluted with DST agar (pH 6.5) or Emmon's Sabouraud dextrose agar to obtain concentrations between 10 and 0.01 mcg/ml, or 80 and 0.16 mcg/m, respectively. The inoculum was standarized in order 1×10^5 cfu/ml, and 10 mcl of each organism was seeded into the agar surface. Incubation was then allowed at 30° C. during 3 days (DST) or 2 days (Emmon's) for yeasts and 10 days for filamentous fungi. Following incubation, the zones of inhibition were measured and compared to an inoculated, drug-free control to yield the MIC value.
# C. tropicalis SQ 1647 = experiment: In vitro antifungal activity (MIC), agar dilution; details: Candida tropicalis, read-out: MIC
# Method: as §1
# [1] = test system: C. guilliermondii SQ 2210; experiment: In vitro antifungal activity (MIC), agar dilution; details: Meyerozyma guilliermondii, read-out: MIC
# Method: as §1
# [2] = test system: T. mentagrophytes ATCC 9972; experiment: In vitro antifungal activity (MIC), agar dilution; details: Trichophyton mentagrophytes, read-out: MIC
# Method: as §1
# [3] = test system: T. mentagrophytes ATCC 9129; experiment: In vitro antifungal activity (MIC), agar dilution; details: Trichophyton mentagrophytes, read-out: MIC
# Method: as §1
# S. cerevisiae ATCC 9763 = experiment: In vitro antifungal activity (MIC), agar dilution; details: Saccharomyces cerevisiae, read-out: MIC
# Method: as §1
# [4] = test system: C. pseudotropicalis ATCC 28838; experiment: In vitro antifungal activity (MIC), agar dilution; details: Kluyveromyces marxianus, read-out: MIC
# Method: as §1
# [5] = test system: T. mentagrophytes (clinica) (5); experiment: In vitro antifungal activity (MIC), agar dilution; details: Trichophyton mentagrophytes, read-out: MIC
# Method: as §1
# [6] = test system: Microsporum canis (clinica); experiment: In vitro antifungal activity (MIC), agar dilution
# Method: as §1
# Microsporum gypseum (-) = experiment: In vitro antifungal activity (MIC), agar dilution; details: Nannizzia gypsea
# Method: as §1
# [7] = test system: Aspergillus fumigatus (1); experiment: In vitro antifungal activity (MIC), agar dilution; details: read-out: MIC
# Method: as §1
# Aspergillus flavus = experiment: In vitro antifungal activity (MIC), agar dilution
# Method: as §1
# [8] = test system: T. mentagrophytes (clinica) (3); experiment: In vitro antifungal activity (MIC), agar dilution; details: Trichophyton mentagrophytes, read-out: MIC
# Method: as §1
# Aspergillus niger = experiment: In vitro antifungal activity (MIC), agar dilution
# Method: as §1
# C. albicans serotipo B = experiment: In vitro antifungal activity (MIC), agar dilution; details: Candida albicans, read-out: MIC
# Method: as §1
# C. albicans serotipo A = experiment: In vitro antifungal activity (MIC), agar dilution; details: Candida albicans, read-out: MIC
# Method: as §1
# Rhodotorula rubra = experiment: In vitro antifungal activity (MIC), agar dilution
# Method: as §1
# [9] = test system: C. parapsilosis (clinica); experiment: In vitro antifungal activity (MIC), agar dilution; details: Lodderomyces parapsilosis, read-out: MIC
# Method: as §1
# C. albicans ATCC 10231 = experiment: In vitro antifungal activity (MIC), agar dilution; details: Candida albicans, read-out: MIC
# Method: as §1
# [10] = test system: C. guilliermondii (clinica); experiment: In vitro antifungal activity (MIC), agar dilution
# Method: as §1
# T. glabrata (clinica) = experiment: In vitro antifungal activity (MIC), agar dilution; details: Nakaseomyces glabratus, read-out: MIC
# Method: as §1
# [11] = test system: T. mentagrophytes (clinica) (1); experiment: In vitro antifungal activity (MIC), agar dilution; details: Trichophyton mentagrophytes, read-out: MIC
# Method: as §1
# [12] = test system: Microsporum audouini ATCC 9079; experiment: In vitro antifungal activity (MIC), agar dilution
# Method: as §1
# [13] = test system: T. mentagrophytes (clinica) (4); experiment: In vitro antifungal activity (MIC), agar dilution; details: Trichophyton mentagrophytes, read-out: MIC
# Method: as §1
# Microsporum gypseum = experiment: In vitro antifungal activity (MIC), agar dilution; details: Nannizzia gypsea
# Method: as §1
# [14] = test system: Aspergillus fumigatus (2); experiment: In vitro antifungal activity (MIC), agar dilution; details: read-out: MIC
# Method: as §1
# [15] = test system: T. mentagrophytes (clinica) (2); experiment: In vitro antifungal activity (MIC), agar dilution; details: Trichophyton mentagrophytes, read-out: MIC
# Method: as §1
# [16] = Emmon's Sabouraud dextrose agar
smiles,measurement,setting,value
"Fc1ccc(C(c2ccccc2)(c2ccccc2F)n2ccnc2)cc1 (stereo not drawn) [UR-4056, 1-[(2-fluorophenyl) (4-fluorophenyl)phenylmethyl]-1H-imidazole]",MIC Distribution (number of strains),C. guilliermondii; MIC 0.3,1 # of strains
same,MIC Distribution (number of strains),C. guilliermondii; MIC 0.6,2 # of strains
same,MIC Distribution (number of strains),C. guilliermondii; MIC column 1.2,2 # of strains
same,MIC,"C. albicans ATCC 28516; ATCC28516, DST agar",0.5 µg/mL
same,MIC,"C. albicans ATCC 28516; ATCC28516, Emmon's Sabouraud dextrose agar",0.04 µg/mL
same,MIC,"C. tropicalis SQ 1647; SQ1647, DST agar",1 µg/mL
same,MIC,"C. tropicalis SQ 1647; SQ1647, Emmon's Sabouraud dextrose agar",0.63 µg/mL
same,MIC,"[1]; SQ2210, DST agar",1 µg/mL
same,MIC,"[1]; SQ2210, Emmon's Sabouraud dextrose agar",0.16 µg/mL
same,MIC,"[2]; ATCC9972, DST agar",0.25 µg/mL
same,MIC,"[2]; ATCC9972, Emmon's Sabouraud dextrose agar",1.25 µg/mL
same,MIC,"[3]; ATCC9129, DST agar",0.05 µg/mL
same,MIC,"[3]; ATCC9129, Emmon's Sabouraud dextrose agar",0.31 µg/mL
same,MIC,"S. cerevisiae ATCC 9763; ATCC9763, DST agar",0.1 µg/mL
same,MIC,"S. cerevisiae ATCC 9763; ATCC9763, Emmon's Sabouraud dextrose agar",0.31 µg/mL
same,MIC,"[4]; ATCC28838, DST agar",0.025 µg/mL
same,MIC,"[4]; ATCC28838, Emmon's Sabouraud dextrose agar",0.63 µg/mL
same,MIC,[5]; DST agar,0.1 µg/mL
same,MIC,[5]; [16],1.25 µg/mL
same,MIC,[6]; DST agar,0.025 µg/mL
same,MIC,[6]; [16],0.63 µg/mL
same,MIC,Microsporum gypseum (-); DST agar,0.1 µg/mL
same,MIC,Microsporum gypseum (-); [16],0.63 µg/mL
same,MIC,[7]; DST agar,0.5 µg/mL
same,MIC,[7]; [16],0.63 µg/mL
same,MIC,Aspergillus flavus; DST agar,1 µg/mL
same,MIC,Aspergillus flavus; [16],2.5 µg/mL
same,MIC,[8]; DST agar,0.25 µg/mL
same,MIC,[8]; [16],0.16 µg/mL
same,MIC,Aspergillus niger; DST agar,0.25 µg/mL
same,MIC,Aspergillus niger; [16],2.5 µg/mL
same,MIC,C. albicans serotipo B; DST agar,0.5 µg/mL
same,MIC,C. albicans serotipo B; [16],0.31 µg/mL
same,MIC,C. albicans serotipo A; DST agar,1 µg/mL
same,MIC,C. albicans serotipo A; [16],1.25 µg/mL
same,MIC,Rhodotorula rubra; DST agar,0.1 µg/mL
same,MIC,Rhodotorula rubra; [16],0.08 µg/mL
same,MIC,[9]; DST agar,0.5 µg/mL
same,MIC,[9]; [16],0.08 µg/mL
same,MIC,"C. albicans ATCC 10231; ATCC10231, DST agar",1 µg/mL
same,MIC,"C. albicans ATCC 10231; ATCC10231, Emmon's Sabouraud dextrose agar",0.04 µg/mL
same,MIC,[10]; [16],5.00 µg/mL
same,MIC,"[10]; Meyerozyma guilliermondii, DST agar, read-out: MIC",5 µg/mL
same,MIC,T. glabrata (clinica); DST agar,0.05 µg/mL
same,MIC,T. glabrata (clinica); [16],0.31 µg/mL
same,MIC,[11]; DST agar,0.1 µg/mL
same,MIC,[11]; [16],1.25 µg/mL
same,MIC,"[12]; ATCC9079, DST agar",0.05 µg/mL
same,MIC,"[12]; ATCC9079, Emmon's Sabouraud dextrose agar",0.63 µg/mL
same,MIC,[13]; DST agar,0.1 µg/mL
same,MIC,[13]; [16],1.25 µg/mL
same,MIC,Microsporum gypseum; DST agar,0.5 µg/mL
same,MIC,Microsporum gypseum; [16],1.25 µg/mL
same,MIC,[14]; DST agar,0.5 µg/mL
same,MIC,[14]; [16],1.25 µg/mL
same,MIC,[15]; DST agar,10 µg/mL
same,MIC,[15]; [16],40 µg/mL
